# In US5330992A, “1-cyclopropyl-4-pyridyl-quinolinones” (priority 1992, dated 1994):
# Columns and labels:
# Parameters in all cases: species or system mouse
# [1] = In vivo antitumor assay, Mam16C/ADR; conditions: mouse, in vivo, drug route iv, qd 1 bid 2,3
# Source text: (§1) Mice: Inbred: C3H/He and NCR-nu; and Hybrids: B6D2Fl (C57BL/6 females X DBA/2 males, CD2Fl (Balb/c females X DBS/2 males) and B6x C3fl (C57BL/6 x C3H) were bred at Wayne State University from strained obtained from the Frederick Cancer Research Facility, Frederick, Md. or purchased from commercial suppliers.
# (§2) Tumors: Murine Tumor: P388 and an adriamycin-resistant (ADR) subline P388/ADR leukemia and the following transplantable solid tumors of mice were used for in Vivo testing: B16 melanoma (B16), pancreatic ductal adenocarcinoma No. 03 (Panc 03), colon adenocarcinoma No. 38 (colo 38), mammary ductal adenocarcinoma No. 16/C (Mam16) and an adriamycin-resistantsubline Mam16C/ADR. […]
# (§3) Quantitative end points used assess antitumor activity included % Increased Life Span (% ILS), Tumor Cell Kill (Log10 kill), and Tumor Growth Inhibition (T/C). […]
# (§4) Tumors were measured with a caliper once or twice weekly (as needed) until either tumors exceeded 1600 mg or cure was assured. […] When the control group tumors reached approximately 750-1500 mg in size (median of group), the median tumor weight of each group was determined (including zeros). […] The % T/C was calculated from the following formula for solid murine tumor models: [formula] where T and C are median tumor weights of the treatment and control groups, respectively. […]
# [2] = tested on: adriamycin-resistant subline Mam16C/ADR; test: In vivo antitumor assay, Mam16C/ADR; conditions: drug route iv, qd 1 bid 2,3
# Source text: as §1, §2, §3, §4
# [3] = In vivo antitumor assay, Mam16C(sc); conditions: mouse, in vivo, drug route iv, qd 1, bid 2,3
# Source text: as §1
# (§5) Tumors: Murine Tumor: P388 and an adriamycin-resistant (ADR) subline P388/ADR leukemia and the following transplantable solid tumors of mice were used for in Vivo testing: B16 melanoma (B16), pancreatic ductal adenocarcinoma No. 03 (Panc 03), colon adenocarcinoma No. 38 (colo 38), mammary ductal adenocarcinoma No. 16/C (Mam16) and an adriamycin-resistantsubline Mam16C/ADR. Human tumor: A single human tumor, mammary carcinoma MX-1 (MX1) was used for in vivo testing. All tumors are in the Developmental Therapeutics Program frozen tumor respository, maintained by the Biological Testing Branch, Frederick Md. Each has a detailed description, code identification number, and list of references at the National Tumor Repository. […]
# as §3
# (§6) The log10 cell kill was calculated from the following formula: [formula] where T-C is the tumor difference in the median day of death between the treated (T) and the control (C) groups and Td is the tumor doubling time (in days), the latter estimated from the best fit straight line from a log-linear growth plot of the control-group tumors in exponential growth. […]
# as §4
# [4] = tested on: mammary ductal adenocarcinoma No. 16/C (Mam16); test: In vivo antitumor assay, Mam16C(sc); conditions: drug route iv
# Source text: as §1, §5, §3, §6, §4
structure (smiles),measurement,setting,value
"Cc1cc(-c2c(F)cc3c(=O)c(Cc4c(O)cccc4O)cn(C4CC4)c3c2F)cc(C)n1 [Example 26, 1-Cyclopropyl-6,8-difluoro-7-[2,6-dimethyl-4-pyridinyl]-3-[2,6-dihydroxyphenylmethyl]-1,4-dihydroquinoline-4-one]",MTD,[1],30 mg/kg
same,T/C %,[2],71%
same,MTD,[3],15 mg/kg
same,T/C %,"[4]; qd 1, bid 2,3",28%
same,LOG KILL,"[4]; qd 1, bid 2,3, log10 cell kill",0.90
